From article PMC7093416, “Selective USP7 inhibition elicits cancer cell killing through a p53-dependent mechanism” (Scientific Reports, 2020)

Tested on: panel of 484 cancer cell lines
Assay: PRISM cancer cell line profiling, 5 days
Type: cell-based
Set-up: AUC: unit not given beside the values
Method: Cancer cell line profiling was performed using the Broad’s PRISM platform. Cell treatment and data analysis were performed as described in Yu et al[42]. Raw Luminex signal was converted to AUC values for each cell line as described. The resulting AUC profile for each compound was modeled against DepMap using the limma package in R[71]. Because hotspot mutation analysis was performed against DepMap, TP53 annotations in Fig. 6c,d are directly from DepMap.

SMILES: CN1CCN(CCC(=O)Nc2ccc3c(=O)n(CC4(O)CCN(C(=O)[C@@H](CCCNC(=O)c5ccc6c(Cl)c7c(nc6c5)CCCC7)Cc5ccccc5)CC4)cnc3c2)CC1 [XL177A]
- AUC (HCC1438_LUNG): 0.7615
- AUC (HCC1588_LUNG): 1.23
- AUC (HCC1806_BREAST): 0.9812
- AUC (HCC1937_BREAST): 1.015
- AUC (HCC4006_LUNG): 0.9625
- AUC (HCT15_LARGE_INTESTINE): 1.19
- AUC (HCT116_LARGE_INTESTINE): 0.9421
- AUC (HDQP1_BREAST): 0.9973
- AUC (HEC1A_ENDOMETRIUM): 1.131
- AUC (HEC1B_ENDOMETRIUM): 0.9267
- AUC (HEC6_ENDOMETRIUM): 0.9564
- AUC (HEC59_ENDOMETRIUM): 1.149
- AUC (HEC108_ENDOMETRIUM): 0.8058
- AUC (HEC151_ENDOMETRIUM): 0.7769
- AUC (HEC251_ENDOMETRIUM): 0.792
- AUC (HEC265_ENDOMETRIUM): 0.8327
- AUC (HEP3B217_LIVER): 1.13
- AUC (HEYA8_OVARY): 0.9929
- AUC (HGC27_STOMACH): 1.014
- AUC (HLF_LIVER): 1.111
- AUC (HMC18_BREAST): 0.9153
- AUC (HOS_BONE): 1.0422
- AUC (HPAC_PANCREAS): 1.477
- AUC (HS294T_SKIN): 0.8762
- AUC (HS618T_LUNG): 0.9543
- AUC (HS729_SOFT_TISSUE): 0.9806
- AUC (HS766T_PANCREAS): 0.877
- AUC (HS852T_SKIN): 1.359
- AUC (HS939T_SKIN): 1.069
- AUC (HS944T_SKIN): 1.047
- AUC (HSC2_UPPER_AERODIGESTIVE_TRACT): 0.968
- AUC (HSC3_UPPER_AERODIGESTIVE_TRACT): 0.8381
- AUC (HT29_LARGE_INTESTINE): 1.3
- AUC (HT55_LARGE_INTESTINE): 1.168
- AUC (HT144_SKIN): 1.076
- AUC (HT1080_SOFT_TISSUE): 1.011
- AUC (HT1376_URINARY_TRACT): 1.127
- AUC (HUCCT1_BILIARY_TRACT): 0.9724
- AUC (HUH6_LIVER): 0.8768
- AUC (HUH7_LIVER): 1.027
- AUC (HUH28_BILIARY_TRACT): 1.165
- AUC (HUPT3_PANCREAS): 1.003
- AUC (IALM_LUNG): 0.9313
- AUC (IGR1_SKIN): 0.998
- AUC (IGR37_SKIN): 0.9905
- AUC (IGROV1_OVARY): 0.7266
- AUC (IM95_STOMACH): 0.6846
- AUC (IPC298_SKIN): 0.897
- AUC (ISHIKAWAHERAKLIO02ER_ENDOMETRIUM): 1.0984
- AUC (ISTMES1_PLEURA): 0.9912
- AUC (ISTMES2_PLEURA): 1.073
- AUC (J82_URINARY_TRACT): 1.012
- AUC (JHH1_LIVER): 0.7875
- AUC (JHH4_LIVER): 1.303
- AUC (JHH5_LIVER): 1.313
- AUC (JHH6_LIVER): 1.146
- AUC (JHH7_LIVER): 1.089
- AUC (JHOC5_OVARY): 0.9299
- AUC (JHOM1_OVARY): 1.1
- AUC (JHOS2_OVARY): 1.084
- AUC (JHUEM2_ENDOMETRIUM): 0.6526
- AUC (JIMT1_BREAST): 0.9668
- AUC (JMSU1_URINARY_TRACT): 1.405
- AUC (K029AX_SKIN): 0.9501
- AUC (KALS1_CENTRAL_NERVOUS_SYSTEM): 0.9126
- AUC (KELLY_AUTONOMIC_GANGLIA): 1.086
- AUC (KMBC2_URINARY_TRACT): 0.7761
- AUC (KMRC1_KIDNEY): 1.1591
- AUC (KMRC3_KIDNEY): 1.033
- AUC (KMRC20_KIDNEY): 1.2
- AUC (KNS42_CENTRAL_NERVOUS_SYSTEM): 1.183
- AUC (KNS60_CENTRAL_NERVOUS_SYSTEM): 1.16
- AUC (KNS62_LUNG): 0.8251
- AUC (KNS81_CENTRAL_NERVOUS_SYSTEM): 0.9475
- AUC (KP2_PANCREAS): 1.066
- AUC (KP3_PANCREAS): 1.01
- AUC (KP4_PANCREAS): 0.8954
- AUC (KPL1_BREAST): 0.9211
- AUC (KU1919_URINARY_TRACT): 0.8697
- AUC (KYSE30_OESOPHAGUS): 0.8748
- AUC (KYSE70_OESOPHAGUS): 0.8646
- AUC (KYSE140_OESOPHAGUS): 1.147
- AUC (KYSE150_OESOPHAGUS): 0.9935
- AUC (KYSE180_OESOPHAGUS): 1.01
- AUC (KYSE270_OESOPHAGUS): 0.9741
- AUC (KYSE410_OESOPHAGUS): 1.031
- AUC (KYSE510_OESOPHAGUS): 0.9351
- AUC (KYSE520_OESOPHAGUS): 0.8676
- AUC (L33_PANCREAS): 1.236
- AUC (LC1SQSF_LUNG): 1.124
- AUC (LCLC103H_LUNG): 1.104
- AUC (LI7_LIVER): 1.1644
- AUC (LK2_LUNG): 1.455
- AUC (LMSU_STOMACH): 0.9257
- AUC (LN18_CENTRAL_NERVOUS_SYSTEM): 0.8921
- AUC (LN229_CENTRAL_NERVOUS_SYSTEM): 1.185
- AUC (LNCAPCLONEFGC_PROSTATE): 0.7244
- AUC (LOUNH91_LUNG): 1.175
- AUC (LOVO_LARGE_INTESTINE): 1.153
- AUC (LOXIMVI_SKIN): 0.9286
- AUC (LS180_LARGE_INTESTINE): 0.8962
- AUC (LS411N_LARGE_INTESTINE): 1.328
- AUC (LS513_LARGE_INTESTINE): 1.158
- AUC (LS1034_LARGE_INTESTINE): 1.385
- AUC (LU99_LUNG): 0.9975
- AUC (LUDLU1_LUNG): 1.119
- AUC (LXF289_LUNG): 0.9272
- AUC (MALME3M_SKIN): 0.9568
- AUC (MCAS_OVARY): 0.987
- AUC (MCF7_BREAST): 0.9375
- AUC (MDAMB175VII_BREAST): 1.118
- AUC (MDAMB231_BREAST): 0.9911
- AUC (MDAMB435S_SKIN): 0.9274
- AUC (MDAMB436_BREAST): 0.9312
- AUC (MDAMB468_BREAST): 0.902
- AUC (MELHO_SKIN): 0.9951
- AUC (MELJUSO_SKIN): 0.9827
- AUC (MESSA_SOFT_TISSUE): 0.5444
- AUC (MEWO_SKIN): 0.9674
- AUC (MFE280_ENDOMETRIUM): 1.202
- AUC (MFE296_ENDOMETRIUM): 1.106
- AUC (MFE319_ENDOMETRIUM): 1.097
